Measured values taken from patent US20230365576A1, “BRM Targeting Compounds And Associated Methods Of Use” (Prelude Therapeutics Incorporated, priority 2022, published 2023).

Key:
[1] = molecular target: T1, SMARCA4 (Homo sapiens, UniProt P51532); experiment: SMARCA4 HiBiT degradation assay in HeLa cells; format: cell-based; conditions: 18 hours; for Dmax: HeLa
T1 construct: SMARCA4-HiBiT knock-in Hela monoclonal cell (CS3023226) were purchased from Promega; host or cells: HeLa (CRISPR HiBiT knock-in monoclonal line, heterozygous)
Procedure, shortened: (§1)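 Degradation measured as HiBiT luminescence (Nano-Glo lytic reagent) after 18 h compound exposure at 37° C. Cells were HeLa clones carrying heterozygous HiBiT tags on SMARCA2 or SMARCA4, 2500 per well; compounds at 3-fold serial dilution from 10 μM.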

[2] = molecular target: T2, SMARCA2 (Homo sapiens, UniProt P51531); experiment: SMARCA2 HiBiT degradation assay in HeLa cells; format: cell-based; conditions: 18 hours; for DC50: read-out: SMARCA2 IC50; for Dmax: HeLa
T2 construct: SMARCA2-HiBiT knock-in Hela monoclonal cell (CS302366); host or cells: HeLa (CRISPR HiBiT knock-in monoclonal line, heterozygous)
Procedure, shortened: as §1

T1 sequence (P51532 whole entry): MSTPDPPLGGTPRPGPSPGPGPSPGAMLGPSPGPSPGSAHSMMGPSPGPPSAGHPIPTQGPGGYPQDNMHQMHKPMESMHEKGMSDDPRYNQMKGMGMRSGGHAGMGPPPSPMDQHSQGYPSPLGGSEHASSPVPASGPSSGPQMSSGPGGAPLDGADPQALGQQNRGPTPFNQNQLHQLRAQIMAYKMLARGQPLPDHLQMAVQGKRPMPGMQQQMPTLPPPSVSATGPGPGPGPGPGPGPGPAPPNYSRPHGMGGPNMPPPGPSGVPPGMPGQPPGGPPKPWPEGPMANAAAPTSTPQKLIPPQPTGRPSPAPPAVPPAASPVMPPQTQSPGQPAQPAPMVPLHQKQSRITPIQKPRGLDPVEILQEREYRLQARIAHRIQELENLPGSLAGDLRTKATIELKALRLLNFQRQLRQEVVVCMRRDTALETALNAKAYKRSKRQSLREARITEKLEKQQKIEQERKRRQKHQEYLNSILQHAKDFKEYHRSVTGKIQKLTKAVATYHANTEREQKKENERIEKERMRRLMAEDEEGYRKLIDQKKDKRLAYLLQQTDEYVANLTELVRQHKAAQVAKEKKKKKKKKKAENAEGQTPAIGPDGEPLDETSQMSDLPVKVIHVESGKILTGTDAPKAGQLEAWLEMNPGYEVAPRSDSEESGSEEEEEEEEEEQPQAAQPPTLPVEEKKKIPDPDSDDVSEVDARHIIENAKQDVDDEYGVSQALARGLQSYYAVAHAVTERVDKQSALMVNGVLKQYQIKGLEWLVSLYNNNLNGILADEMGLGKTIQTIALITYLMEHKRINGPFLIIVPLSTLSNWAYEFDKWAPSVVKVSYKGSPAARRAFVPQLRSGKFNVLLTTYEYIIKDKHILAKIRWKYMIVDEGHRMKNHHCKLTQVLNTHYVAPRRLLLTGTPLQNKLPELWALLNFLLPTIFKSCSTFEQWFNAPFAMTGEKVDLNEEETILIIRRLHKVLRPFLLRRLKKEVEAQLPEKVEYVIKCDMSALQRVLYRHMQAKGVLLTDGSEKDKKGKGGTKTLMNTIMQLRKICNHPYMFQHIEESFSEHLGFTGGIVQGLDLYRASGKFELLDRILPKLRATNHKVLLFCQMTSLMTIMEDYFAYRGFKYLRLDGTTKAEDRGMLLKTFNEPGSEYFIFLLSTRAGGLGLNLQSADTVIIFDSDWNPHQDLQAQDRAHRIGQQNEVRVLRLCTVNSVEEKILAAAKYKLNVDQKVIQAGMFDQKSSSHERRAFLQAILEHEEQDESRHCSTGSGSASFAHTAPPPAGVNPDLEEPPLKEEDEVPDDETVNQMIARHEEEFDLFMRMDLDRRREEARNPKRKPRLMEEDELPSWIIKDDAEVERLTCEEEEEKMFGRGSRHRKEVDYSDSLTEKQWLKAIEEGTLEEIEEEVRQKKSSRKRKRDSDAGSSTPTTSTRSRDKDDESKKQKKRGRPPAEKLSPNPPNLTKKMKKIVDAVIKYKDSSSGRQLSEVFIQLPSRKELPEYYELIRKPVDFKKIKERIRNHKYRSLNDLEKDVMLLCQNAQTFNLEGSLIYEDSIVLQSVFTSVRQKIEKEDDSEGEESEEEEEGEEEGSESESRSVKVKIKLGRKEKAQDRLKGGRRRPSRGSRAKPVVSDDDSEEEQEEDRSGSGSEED
T2 sequence (P51531 whole entry): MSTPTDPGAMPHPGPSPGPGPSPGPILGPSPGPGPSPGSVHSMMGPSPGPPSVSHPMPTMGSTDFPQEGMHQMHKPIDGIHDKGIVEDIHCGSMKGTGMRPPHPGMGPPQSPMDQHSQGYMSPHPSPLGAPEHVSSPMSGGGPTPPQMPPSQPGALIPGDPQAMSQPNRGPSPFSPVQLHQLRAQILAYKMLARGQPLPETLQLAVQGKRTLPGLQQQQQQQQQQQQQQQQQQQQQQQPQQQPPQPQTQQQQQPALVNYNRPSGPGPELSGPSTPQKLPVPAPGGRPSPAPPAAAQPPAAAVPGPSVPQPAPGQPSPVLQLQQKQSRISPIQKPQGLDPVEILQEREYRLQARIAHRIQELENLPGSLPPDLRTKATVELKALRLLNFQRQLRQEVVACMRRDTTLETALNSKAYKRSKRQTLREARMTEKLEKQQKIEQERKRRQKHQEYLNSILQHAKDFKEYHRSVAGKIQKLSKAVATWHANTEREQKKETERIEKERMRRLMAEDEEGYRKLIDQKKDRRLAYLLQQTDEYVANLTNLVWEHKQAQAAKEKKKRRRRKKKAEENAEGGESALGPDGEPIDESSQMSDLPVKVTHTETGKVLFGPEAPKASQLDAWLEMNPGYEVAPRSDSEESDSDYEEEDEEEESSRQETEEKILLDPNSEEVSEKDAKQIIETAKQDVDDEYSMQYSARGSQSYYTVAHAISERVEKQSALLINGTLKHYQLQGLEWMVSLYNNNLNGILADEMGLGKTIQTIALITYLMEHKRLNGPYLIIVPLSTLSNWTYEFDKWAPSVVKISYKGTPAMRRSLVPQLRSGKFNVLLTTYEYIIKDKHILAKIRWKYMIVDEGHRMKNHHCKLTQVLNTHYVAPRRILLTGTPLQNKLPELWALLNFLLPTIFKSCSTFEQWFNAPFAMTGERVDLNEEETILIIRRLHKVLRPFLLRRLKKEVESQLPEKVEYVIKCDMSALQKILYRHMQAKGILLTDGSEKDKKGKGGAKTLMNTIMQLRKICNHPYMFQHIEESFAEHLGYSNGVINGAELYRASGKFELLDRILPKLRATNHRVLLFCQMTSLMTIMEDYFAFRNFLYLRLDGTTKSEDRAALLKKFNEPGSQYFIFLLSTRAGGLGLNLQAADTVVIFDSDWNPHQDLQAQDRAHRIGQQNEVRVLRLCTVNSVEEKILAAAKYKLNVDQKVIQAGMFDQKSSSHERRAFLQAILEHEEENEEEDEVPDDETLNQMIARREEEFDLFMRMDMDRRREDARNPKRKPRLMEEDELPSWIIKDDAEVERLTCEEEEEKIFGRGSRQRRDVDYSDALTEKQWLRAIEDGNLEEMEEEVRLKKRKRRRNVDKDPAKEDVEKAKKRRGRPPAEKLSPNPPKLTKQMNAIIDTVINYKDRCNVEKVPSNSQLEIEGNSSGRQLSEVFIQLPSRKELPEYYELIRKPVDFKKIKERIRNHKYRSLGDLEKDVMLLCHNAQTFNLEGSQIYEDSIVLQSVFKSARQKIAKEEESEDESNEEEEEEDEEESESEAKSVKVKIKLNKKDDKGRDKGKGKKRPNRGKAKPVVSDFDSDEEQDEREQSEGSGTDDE

| DC50 [1] | Dmax [1] | DC50 [2] | Dmax [2] | SMILES |
| --- | --- | --- | --- | --- |
| < 100 nM | < 50% | < 100 nM | > 75% | C[C@@H]1CN(C[C@H]2CN(c3ccc4c(c3)CN(C3CCC(=O)NC3=O)C4=O)CCO2)C[C@@H](C)N1C(=O)N1CCN2c3cc(-c4cc(F)cc(F)c4O)nnc3NC[C@H]2C1 (stereo partly drawn) [Example 46, 3-(5-((S)-2-(((3R,5R)-4-((S)-2-(3,5-difluoro-2-hydroxyphenyl)-6,6a,7,8,9,10-hexahydro-5H-pyrazino[1′,2′:4,5]pyrazino[2,3-c]pyridazine-8-carbonyl)-3,5-dimethylpiperazin-1-yl)methyl)morpholino)-1-oxoisoindolin-2-yl)piperidine-2,6-dione] |
| < 100 nM | 50 to 75% | < 100 nM | > 75% | C[C@H]1CN(CC2CCN(c3ccc4c(c3)C(=O)N(C3CCC(=O)NC3=O)C4)CC2)C[C@H](C)N1C(=O)N1CCN2c3cc(-c4cc(F)cc(F)c4O)nnc3NC[C@H]2C1 (stereo partly drawn) [Example 47, 3-(6-(4-(((3S,5S)-4-((S)-2-(3,5-difluoro-2-hydroxyphenyl)-6,6a,7,8,9,10-hexahydro-5H-pyrazino[1′,2′:4,5]pyrazino[2,3-c]pyridazine-8-carbonyl)-3,5-dimethylpiperazin-1-yl)methyl)piperidin-1-yl)-1-oxoisoindolin-2-yl)piperidine-2,6-dione] |
| < 100 nM | < 50% | < 100 nM | > 75% | O=C1CCC(N2Cc3ccc(N4CCN(CC5CCN(C(=O)N6CCN7c8cc(-c9cc(F)cc(F)c9O)nnc8NC[C@H]7C6)CC5)CC4)cc3C2=O)C(=O)N1 (stereo partly drawn) [Example 48, 3-(6-(4-((1-((S)-2-(3,5-difluoro-2-hydroxyphenyl)-6,6a,7,8,9,10-hexahydro-5H-pyrazino[1′,2′:4,5]pyrazino[2,3-c]pyridazine-8-carbonyl)piperidin-4-yl)methyl)piperazin-1-yl)-1-oxoisoindolin-2-yl)piperidine-2,6-dione] |
| < 100 nM | > 75% | < 100 nM | > 75% | O=C1CCC(N2Cc3ccc(N4CCOC(CN5CC6C(C5)C6CN5CCN6c7cc(-c8cc(F)cc(F)c8O)nnc7NCC6C5)C4)cc3C2=O)C(=O)N1 [Example 49, 3-(6-(2-(((1R,5S,6s)-6-(((S)-2-(3,5-difluoro-2-hydroxyphenyl)-5,6,6a,7,9,10-hexahydro-8H-pyrazino[1′,2′:4,5]pyrazino[2,3-c]pyridazin-8-yl)methyl)-3-azabicyclo[3.1.0]hexan-3-yl)methyl)morpholino)-1-oxoisoindolin-2-yl)piperidine-2,6-dione] |
| < 100 nM | 50 to 75% | < 100 nM | > 75% | C[C@H]1CN2c3cc(-c4cc(F)cc(F)c4O)nnc3NC[C@H]2CN1C[C@H]1[C@@H]2CN(CC3CN(c4ccc5c(c4)C(=O)N(C4CCC(=O)NC4=O)C5)CCO3)C[C@@H]21 (stereo partly drawn) [Example 50, 3-(6-(2-(((1R,5S,6r)-6-(((6aS,9S)-2-(3,5-difluoro-2-hydroxyphenyl)-9-methyl-5,6,6a,7,9,10-hexahydro-8H-pyrazino[1′,2′:4,5]pyrazino[2,3-c]pyridazin-8-yl)methyl)-3-azabicyclo[3.1.0]hexan-3-yl)methyl)morpholino)-1-oxoisoindolin-2-yl)piperidine-2,6-dione] |
| > 1000 nM | < 50% | < 100 nM | < 50% | O=C1CCC(N2Cc3cc(N4CCO[C@@H](CN5CC[C@H](CN6CCN7c8cc(-c9cc(F)cc(F)c9O)nnc8NC[C@H]7C6)[C@@H](F)C5)C4)ccc3C2=O)C(=O)N1 (stereo partly drawn) [Example 51, 3-(5-((S)-2-(((3R,4R)-4-(((S)-2-(3,5-difluoro-2-hydroxyphenyl)-5,6,6a,7,9,10-hexahydro-8H-pyrazino[1′,2′:4,5]pyrazino[2,3-c]pyridazin-8-yl)methyl)-3-fluoropiperidin-1-yl)methyl)morpholino)-1-oxoisoindolin-2-yl)piperidine-2,6-dione] |
| < 100 nM | 50 to 75% | < 100 nM | > 75% | O=C1CCC(N2Cc3ccc(N4CC[C@@H](CN5CC[C@@H](CN6CCN7c8cc(-c9cc(F)cc(F)c9O)nnc8NC[C@H]7C6)C5)C4)cc3C2=O)C(=O)N1 (stereo partly drawn) [Example 52, 3-(6-((S)-3-(((R)-3-(((S)-2-(3,5-difluoro-2-hydroxyphenyl)-5,6,6a,7,9,10-hexahydro-8H-pyrazino[1′,2′:4,5]pyrazino[2,3-c]pyridazin-8-yl)methyl)pyrrolidin-1-yl)methyl)pyrrolidin-1-yl)-1-oxoisoindolin-2-yl)piperidine-2,6-dione] |
| < 100 nM | 50 to 75% | < 100 nM | > 75% | O=C1CCC(N2Cc3cc(N4CC[C@@H](CN5CCC(CN6CCN7c8cc(-c9cc(F)cc(F)c9O)nnc8NC[C@H]7C6)CC5)C4)ccc3C2=O)C(=O)N1 (stereo partly drawn) [Example 53, 3-(5-((S)-3-((4-(((S)-2-(3,5-difluoro-2-hydroxyphenyl)-5,6,6a,7,9,10-hexahydro-8H-pyrazino[1′,2′:4,5]pyrazino[2,3-c]pyridazin-8-yl)methyl)piperidin-1-yl)methyl)pyrrolidin-1-yl)-1-oxoisoindolin-2-yl)piperidine-2,6-dione] |
| < 100 nM | > 75% | < 100 nM | > 75% | O=C1CCC(N2Cc3ccc(N4CCN(C[C@H]5CC[C@H](CN6CCN7c8cc(-c9cc(F)cc(F)c9O)nnc8NC[C@H]7C6)CC5)CC4)cc3C2=O)C(=O)N1 (stereo partly drawn) [Example 54] |
| < 100 nM | < 50% | < 100 nM | 50 to 75% | O=C1CCC(N2Cc3ccc(N4CCC(CN5CCC(F)(C(=O)N6CCN7c8cc(-c9cc(F)cc(F)c9O)nnc8NC[C@H]7C6)CC5)CC4)cc3C2=O)C(=O)N1 (stereo partly drawn) [Example 55, 3-(6-(4-((4-((S)-2-(3,5-difluoro-2-hydroxyphenyl)-6,6a,7,8,9,10-hexahydro-5H-pyrazino[1′,2′:4,5]pyrazino[2,3-c]pyridazine-8-carbonyl)-4-fluoropiperidin-1-yl)methyl)piperidin-1-yl)-1-oxoisoindolin-2-yl)piperidine-2,6-dione] |
| < 100 nM | > 75% | < 100 nM | > 75% | O=C1CCC(N2Cc3ccc(N4CCN(C[C@H]5CC[C@@H](CN6CCN7c8cc(-c9cc(F)cc(F)c9O)nnc8NC[C@H]7C6)CC5)CC4)cc3C2=O)C(=O)N1 (stereo partly drawn) [Example 56, 3-(6-(4-(((1R,4s)-4-(((S)-2-(3,5-difluoro-2-hydroxyphenyl)-5,6,6a,7,9,10-hexahydro-8H-pyrazino[1′,2′:4,5]pyrazino[2,3-c]pyridazin-8-yl)methyl)cyclohexyl)methyl)piperazin-1-yl)-1-oxoisoindolin-2-yl)piperidine-2,6-dione] |
| < 100 nM | < 50% | < 100 nM | > 75% | C[C@@H]1CN(CC2CCN(c3ccc4c(c3)C(=O)N(C3CCC(=O)NC3=O)C4)CC2)[C@@H](C)CN1C(=O)N1CCN2c3cc(-c4cccc(F)c4O)nnc3NCC2(C)C1 (stereo partly drawn) [Example 57, 3-(6-(4-(((2S,5R)-4-(2-(3-fluoro-2-hydroxyphenyl)-6a-methyl-6,6a,7,8,9,10-hexahydro-5H-pyrazino[1′,2′:4,5]pyrazino[2,3-c]pyridazine-8-carbonyl)-2,5-dimethyl-piperazin-1-yl)methyl)piperidin-1-yl)-1-oxoisoindolin-2-yl)piperidine-2,6-dione] |
| < 100 nM | 50 to 75% | < 100 nM | > 75% | O=C1CCC(N2Cc3ccc(N4CCN(C[C@H]5CC[C@H](CN6CCN7c8cc(-c9cccc(F)c9O)nnc8NC[C@H]7C6)CC5)CC4)cc3C2=O)C(=O)N1 (stereo partly drawn) [Example 58, 3-(6-(4-(((1S,4r)-4-(((S)-2-(3-fluoro-2-hydroxyphenyl)-5,6,6a,7,9,10-hexahydro-8H-pyrazino[1′,2′:4,5]pyrazino[2,3-c]pyridazin-8-yl)methyl)cyclohexyl)methyl)piperazin-1-yl)-1-oxoisoindolin-2-yl)piperidine-2,6-dione] |
| < 100 nM | 50 to 75% | < 100 nM | > 75% | CC1(C)CN(CC2CCN(c3ccc4c(c3)C(=O)N([C@H]3CCC(=O)NC3=O)C4)CC2)CCN1C(=O)N1CCN2c3cc(-c4cccc(F)c4O)nnc3NC[C@]2(C(F)F)C1 [Example 65, (S)-3-(6-(4-((4-((R)-6a-(difluoromethyl)-2-(3-fluoro-2-hydroxyphenyl)-6,6a,7,8,9,10-hexahydro-5H-pyrazino[1′,2′:4,5]pyrazino[2,3-c]pyridazine-8-carbonyl)-3,3-dimethylpiperazin-1-yl)methyl)piperidin-1-yl)-1-oxoisoindolin-2-yl)piperidine-2,6-dione] |
| < 100 nM | > 75% | < 100 nM | > 75% | C[C@H]1CN(CC2CCN(c3ccc4c(c3)C(=O)N([C@H]3CCC(=O)NC3=O)C4)CC2)C[C@H](C)N1C(=O)N1CCN2c3cc(-c4cccc(F)c4O)nnc3NC[C@]2(C(F)F)C1 [Example 66, (S)-3-(6-(4-(((3S,5S)-4-((R)-6a-(difluoromethyl)-2-(3-fluoro-2-hydroxyphenyl)-6,6a,7,8,9,10-hexahydro-5H-pyrazino[1′,2′:4,5]pyrazino[2,3-c]pyridazine-8-carbonyl)-3,5-dimethylpiperazin-1-yl)methyl)piperidin-1-yl)-1-oxoisoindolin-2-yl)piperidine-2,6-dione] |
